Entries after “also recorded” stand apart in the source; their conditions may differ. Where no end group is shown, it is not given here.
Key:
mixed cardiac cells [1] = assay: High-content hypertrophy assay (Hypertrophy Score), PE-LIF-stimulated mixed cardiac cells treated with inhibitors; details: 96 h; for antihypertrophic effect (Hypertrophy Score), in words: comparison at 8 μM
purified CMs [2] = assay: qPCR of hypertrophic gene expression (Nppa, Nppb) in purified CMs; assay type: cell-based, rat; details: 100 µM PE + 50 ng/ml LIF, 24 h
[3] = test system: mixed cardiac cells (CMs and non-CMs); details: for toxicity, in words: nuclei counts of CMs and non-CMs
mixed cardiac cells [4] = assay: Profiling of hypertrophic stimulants in mixed cardiac cell culture (Hypertrophy Score); details: stimulants at three concentrations
GRK2 = details: read-out: GRK2 IC50; biochemical IC50, radiometric kinase inhibition assay; ref 40 (citation marks lost in text); cited from earlier work
purified CMs [5] = assay: Profiling of hypertrophic stimulants in purified CM culture (Hypertrophy Score)

Molecule | antihypertrophic effect (Hypertrophy Score), in words (mixed cardiac cells [1]; PE-LIF (20 μM, 50 ng/mL)) | hypertrophic response (Hypertrophy Score), in words (mixed cardiac cells [4]) | further results
Cc1[nH]c(/C=C2\C(=O)Nc3ccc(C(=O)N[C@H](C)c4ccc(F)cc4)cc32)c(C)c1NC(=O)C1CCOCC1 [Compound 5i] | partially reduced the Hypertrophy Score |  | 
Cc1[nH]c(/C=C2\C(=O)Nc3ccc(C(=O)N[C@H](C)c4ccc(F)cc4)cc32)c(C)c1NC(=O)[C@@H](O)c1ccco1 [Compound 4a] | most potent cellular inhibitor; also recorded: clear cellular effects |  | concentration from which PE-LIF-induced Hypertrophy Score is significantly reduced (mixed cardiac cells [1]; PE-LIF (20 μM, 50 ng/mL)): ≥ 3 µM; IC50 (mixed cardiac cells [1]; Rattus norvegicus, read-out: cellular IC50 (antihypertrophic effects)): 4.7 µM; PE-LIF-induced upregulation of Nppa and Nppb, in words (purified CMs [2]): prevented PE-LIF-induced upregulation of Nppa and Nppb
Cc1nc2c(C(=O)Nc3c(C)[nH]c(/C=C4\C(=O)Nc5ccc(C(=O)N[C@H](C)c6ccc(F)cc6)cc54)c3C)cccc2[nH]1 [Compound 5m] | partially reduced the Hypertrophy Score |  | 
Cc1[nH]c(/C=C2\C(=O)Nc3ccc(C(=O)N[C@H](C)c4ccc(F)cc4)cc32)c(C)c1NC(=O)c1ccoc1 [Compound 5b] | nor significant antihypertrophic effects; also recorded: surprisingly poor cellular efficacy |  | toxicity, in words [3]: neither toxicity
endothelin-1 (CSCSSLMDKECVYFCHLDIIW; not fully specified (bridges); ends and bridges not checked; UniProt P05305 53-73, looked up) [ET-1] |  | robust hypertrophic effects | 
CNC[C@H](O)c1cccc(O)c1 [PE, phenylephrine] |  | strongest response | 
Cc1[nH]c(/C=C2\C(=O)Nc3ccc(C(=O)N[C@H](C)c4ccc(F)cc4)cc32)c(C)c1NC(=O)C(=O)c1ccco1 [Compound 3] | partially reduced the Hypertrophy Score; also recorded: surprisingly poor cellular efficacy |  | reduction in non-CM numbers (antiproliferative activity), in words ([3]; non-CM nuclei counts, 96 h): most pronounced; IC50 (GRK2): […]
Cc1[nH]c(/C=C2\C(=O)Nc3ccc(C(=O)N[C@H](C)c4ccc(F)cc4)cc32)c(C)c1NC(=O)[C@H]1CCC(=O)O1 [Compound 5k] | nor significant antihypertrophic effects; also recorded: lacked cellular efficacy |  | toxicity, in words [3]: neither toxicity
NC[C@H](O)c1ccc(O)c(O)c1 [NE, norepinephrine] |  | weaker response than PE alone | 
Cc1nc(C(=O)Nc2c(C)[nH]c(/C=C3\C(=O)Nc4ccc(C(=O)N[C@H](C)c5ccc(F)cc5)cc43)c2C)c(C)s1 [Compound 5d] | appeared to reduce hypertrophy |  | concentration at which CMs are affected ([3]; CM nuclei counts, 96 h): ≥ 2 µM; concentration from which non-CM numbers are reduced ([3]; non-CM nuclei counts, 96 h): ≥ 0.5 µM; toxicity, in words [3]: excluded due to toxicity
leukemia inhibitory factor [LIF] |  | little to no effect | hypertrophic response (Hypertrophy Score), in words (purified CMs [5]): significantly increased the Hypertrophy Score
Cc1[nH]c(/C=C2\C(=O)Nc3ccc(C(=O)N[C@H](C)c4ccc(F)cc4)cc32)c(C)c1NC(=O)[C@H](O)c1ccco1 [Compound 4b] | no effect at any concentration; also recorded: lacked cellular efficacy; also recorded: no antihypertrophic efficacy |  | reduction in non-CM numbers (antiproliferative activity), in words ([3]; non-CM nuclei counts, 96 h): absent
transforming growth factor beta [TGFβ] |  | little to no effect | 

From publication PMC12794055, “High-Throughput Cardiac Hypertrophy Phenotyping Supports Lead Optimization of GRK5 Inhibitors” (ACS Medicinal Chemistry Letters, 2025)
